Assays:
[1] = In vitro proton relaxivity in human serum; assay type: physicochemical; conditions: 60 MHz, 40° C.
Procedure: Both the longitudinal and transverse relaxation times were measured in human serum (BioreclamationIVT, Cat #HMSRM-M) to reflect the efficiency of the Mn(II) based chelates in an environment close to physiological. The relaxivity assessment was carried out at a concentration ranging from 5 to 0 mM Mn(II), at 40° C. using a Minispec Mq benchtop NMR relaxometer (Bruker Instruments, Rheinstetten, Germany) operating at 60 MHz (1.4 T) with an inversion recovery pulse sequence. The longitudinal and transverse relaxivities of the complexes (e.g., r1 and r2 respectively) were calculated by plotting the reciprocal of their relaxation time versus the manganese concentration as determined via ICP-MS (Spectro Arcos FHS12, S/N 10003910 or S/N 12006120) for each Mn(II) based chelates. The dependence of T1 by B0 (i.e., magnetic field) applied was assessed via the acquisition of ^1H Nuclear Magnetic Relaxation Dispersion (NMRD) profiles. A dedicated Stelar SMARTracer Fast Field Cycling relaxometer (0.01-10 MHz) and a Bruker WP80 NMR electromagnet adapted to variable field measurements (20-80 MHz) and controlled by a SMARTracer PC-NMR console was used to record the ^1H NMRD profiles over an extended range of Larmor Frequencies (from 0.01 to 80 MHz). The temperature was monitored by a VTC91 temperature control unit and maintained by a gas flow. The temperature was determined by previous calibration with a Pt resistance temperature probe. High field relaxivities were measured on a Bruker AVANCE NMR spectrometer at 400 MHz. A total of 25 data points per NMRD profile were recorded at each temperature, pH 6.9 and with a manganese concentration in the samples of 6.99, 6.78 and 4.45 mM for the prior art Mn Chelate, Mn Chelate 4 and Mn Chelate 3, respectively. The concentration of Mn(II) in all samples was verified by Bulk Magnetic Susceptibility (BMS) measurements. Relaxivity was computed by subtracting the relaxation rate of the medium (distilled water) from the relaxation rate of the Mn(II) complex solution at each field strength and dividing the difference by the manganese concentration verified by BMS measurements.
The linear fit (R2>0.99 for all compounds examined) of 1/T1 and 1/T2 as a function of Mn concentration generated the r1 or r2 values reported in Table 4 for human serum.

[2] = Water solubility of Mn(II) based chelates; assay type: physicochemical; conditions: thermodynamic from solid, 25° C.
Procedure: The solubility of Mn(II) based chelates was confirmed by dissolving purified Mn(II) based chelates ( 99% purity) in a prescribed volume of solvent (Millipore water 18.2 MegaOhm from a Millipore BioCell Benchtop unit) to provide a solution of given volume. Solutions were visually inspected for homogeneity and filtered through a 0.45 um PTFE filter membrane if necessary. The assessment was carried out at 25° C. Final sample concentrations were confirmed by determination of final Mn(II) concentration via ICP-MS (Spectro Arcos FHS[…] 10003910 or S/N 12006120).

SMILES	r1 (longitudinal relaxivity) [1] [mM⁻¹ s⁻¹]	solubility [2] [mM]
CN1CCN2Cc3cccc(n3)CN(CC1)C(CC(=O)NC[C@H](O)[C@@H](O)[C@H](O)[C@H](O)CO)C(=O)[O][Mn][O]C(=O)C2CC(=O)NC[C@H](O)[C@@H](O)[C@H](O)[C@H](O)CO (stereo partly shown) [Mn Chelate 5a]	3.7	> 500
CN1CCN2Cc3cccc(n3)CN(CC1)C(CC(=O)NCC(O)CO)C(=O)[O][Mn][O]C(=O)C2CC(=O)NCC(O)CO (stereo not shown) [Mn Chelate 10a]	3.8	> 500
CN1CCN2Cc3cccc(n3)CN(CC1)C(CCC(=O)NCC(O)CO)C(=O)[O][Mn][O]C(=O)C2CCC(=O)NCC(O)CO (stereo not shown) [Mn Chelate 10]	4.3	> 500
CN1CCN2Cc3cccc(n3)CN(CC1)C(CCC(=O)Nc1cc(C(=O)NCC(O)CO)cc(C(=O)NCC(O)CO)c1)C(=O)[O][Mn][O]C(=O)C2CCC(=O)Nc1cc(C(=O)NCC(O)CO)cc(C(=O)NCC(O)CO)c1 (stereo not shown) [Mn Chelate 7]	6.0	> 500
CN1CCN2Cc3cccc(n3)CN(CC1)C(CCC(=O)N(CCO)CCO)C(=O)[O][Mn][O]C(=O)C2CCC(=O)N(CCO)CCO (stereo not shown) [Mn Chelate 9]	4.3	> 500
CN1CCN2Cc3cccc(n3)CN(CC1)C(CCC(=O)NC[C@H](O)[C@@H](O)[C@H](O)[C@H](O)CO)C(=O)[O][Mn][O]C(=O)C2CCC(=O)NC[C@H](O)[C@@H](O)[C@H](O)[C@H](O)CO (stereo partly shown) [Mn Chelate 5]	5.2	> 500
CN1CCN2Cc3cccc(n3)CN(CC1)C(CCC(=O)NC(CO)(CO)CO)C(=O)[O][Mn][O]C(=O)C2CCC(=O)NC(CO)(CO)CO (stereo not shown) [Mn Chelate 11]	4.6	–

Reference: patent publication US11884686B2, “Chelate compounds” (priority 2016, dated 2024)
